These results are taken from paper PMC3410962 (2012).

pIC50: −log10 of the molar value.

In this experiment the target is prostate-specific membrane antigen (PSMA) (Homo sapiens, UniProt Q04609). The experiment is described as follows: HPLC-based inhibition assay of purified PSMA with PABGγG substrate. In kind it is biochemical.
prostate-specific membrane antigen (PSMA), sequence (Q04609 whole entry): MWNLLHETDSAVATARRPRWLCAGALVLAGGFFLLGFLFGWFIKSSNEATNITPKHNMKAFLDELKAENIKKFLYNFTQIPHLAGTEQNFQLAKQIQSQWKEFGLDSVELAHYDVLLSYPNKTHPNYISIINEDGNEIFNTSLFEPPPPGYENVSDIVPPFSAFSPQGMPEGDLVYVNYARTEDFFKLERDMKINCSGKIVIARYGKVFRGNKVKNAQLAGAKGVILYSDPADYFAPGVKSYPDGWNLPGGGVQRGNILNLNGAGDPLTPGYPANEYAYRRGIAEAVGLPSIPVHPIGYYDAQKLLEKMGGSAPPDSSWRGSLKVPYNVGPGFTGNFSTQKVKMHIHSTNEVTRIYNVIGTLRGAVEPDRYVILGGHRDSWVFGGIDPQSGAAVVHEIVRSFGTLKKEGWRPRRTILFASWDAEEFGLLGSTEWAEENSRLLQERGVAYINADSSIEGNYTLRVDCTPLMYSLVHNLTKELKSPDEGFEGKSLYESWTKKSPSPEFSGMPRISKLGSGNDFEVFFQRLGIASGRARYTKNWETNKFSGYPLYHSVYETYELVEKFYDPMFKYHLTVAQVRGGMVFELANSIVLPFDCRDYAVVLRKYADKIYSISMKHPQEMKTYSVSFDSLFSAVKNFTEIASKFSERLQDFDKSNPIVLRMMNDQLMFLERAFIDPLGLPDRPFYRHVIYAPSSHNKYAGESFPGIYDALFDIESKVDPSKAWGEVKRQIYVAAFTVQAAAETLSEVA

In turn, biotin-PEG12-CTT-54 had a negative-log IC50 (pIC50) of 8.00.

What is called pIC50 is −log10 of the IC50, conventionally taken in molar units. The low end stands for a high IC50, the high end for a low IC50.
